From US11753407B2, “Compounds for treating spinal muscular atrophy” (PTC Therapeutics, Inc., priority 2012, dated 2023)

Assays:
[1] = tested on: Smn protein in SMA patient fibroblast cells (GM03813); assay: Smn protein assay in cultured cells (SMN HTRF); format: cell-based, human; conditions: SMA patient fibroblast cells, 48 hours; for EC1.5x for Smn protein expression: 7-point concentration curve, SMN HTRF, concentration producing 1.5 times Smn protein vs DMSO vehicle control; for maximum fold (Fold) increase of Smn protein: 7-point concentration data, fold relative to vehicle control
Procedure, shortened: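 Smn protein abundance in treated SMA fibroblasts was measured by HTRF after 48 h compound exposure. The reported EC1.5× is the concentration producing 1.5 times vehicle Smn levels.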

[2] = tested on: SMN2 minigene mRNA (SMN2-A minigene) in HEK293H cells; assay: SMN2 minigene mRNA splicing RT-qPCR assay in cultured cells; format: cell-based, human; conditions: Homo sapiens, HEK293-H; concentration increasing full length SMN2 mRNA 1.5-fold relative to vehicle-treated cells; HEK293H cells with SMN2-A minigene, 24 hours, 7-point concentration data; read-out: EC1.5x for production of full length SMN2 mRNA
Procedure, shortened: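 Potency reflects the concentration that lifts full-length SMN2 minigene mRNA 1.5-fold above vehicle in stably transfected HEK293H cells after 24 h of treatment. Transcript abundance came from RT-qPCR as (1+E)^−Ct, normalized to GAPDH; endogenous SMN1/SMN2 are not detected.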

melting point | Structure (SMILES) | EC1.5x for Smn protein expression [1] | maximum fold (Fold) increase of Smn protein [1] | EC (1.5-fold increase) [2]
250 to 252 °C | CCCc1nc(C)cn2nc(-c3cc(=O)n4cc(N5CCNCC5)ccc4n3)cc12 [Compound 723, 2-(6-methyl-4-propylpyrazolo[1,5-a]pyrazin-2-yl)-7-(piperazin-1-yl)-4H-pyrido[1,2-a]pyrimidin-4-one] | **** (an EC1.5x≤0.3 μM is indicated by four stars (****)) | ***** (a fold increase >1.65 is indicated by five stars (*****)) | < 0.1 µM
246 to 248 °C | CCCc1nc(C)cn2nc(-c3cc(=O)n4cc(N5CCN(C)CC5)ccc4n3)cc12 [Compound 724, 7-(4-methylpiperazin-1-yl)-2-(6-methyl-4-propylpyrazolo[1,5-a]pyrazin-2-yl)-4H-pyrido[1,2-a]pyrimidin-4-one] | *** (an EC1.5× between >0.3 μM and ≤1 μM is indicated by three stars (***)) | ***** (a fold increase >1.65 is indicated by five stars (*****)) | 0.3 to 1 µM
231 to 233 °C | CCCc1nc(C)cn2nc(-c3cc(=O)n4cc(N5CCN(CC)CC5)ccc4n3)cc12 [Compound 725, 7-(4-ethylpiperazin-1-yl)-2-(6-methyl-4-propylpyrazolo[1,5-a]pyrazin-2-yl)-4H-pyrido[1,2-a]pyrimidin-4-one] | *** (an EC1.5× between >0.3 μM and ≤1 μM is indicated by three stars (***)) | ***** (a fold increase >1.65 is indicated by five stars (*****)) | 0.1 to 0.3 µM
225 to 227 °C | CCCc1nc(C)cn2nc(-c3cc(=O)n4cc(N5CCN(CCO)CC5)ccc4n3)cc12 [Compound 726, 7-[4-(2-hydroxyethyl)piperazin-1-yl]-2-(6-methyl-4-propylpyrazolo[1,5-a]pyrazin-2-yl)-4H-pyrido[1,2-a]pyrimidin-4-one] | ** (an EC1.5× between >1 μM and ≤3 μM is indicated by two stars (**)) | **** (a fold increase between >1.5 and ≤1.65 is indicated by four stars (****)) | 0.3 to 1 µM
195 to 197 °C | CCCc1nc(C)cn2nc(-c3cc(=O)n4cc(N5CCN[C@H](C)C5)ccc4n3)cc12 [Compound 727, 7-[(3R)-3-methylpiperazin-1-yl]-2-(6-methyl-4-propylpyrazolo[1,5-a]pyrazin-2-yl)-4H-pyrido[1,2-a]pyrimidin-4-one] | **** (an EC1.5x≤0.3 μM is indicated by four stars (****)) | ***** (a fold increase >1.65 is indicated by five stars (*****)) | < 0.1 µM
195 to 197 °C | CCCc1nc(C)cn2nc(-c3cc(=O)n4cc(N5CCN[C@@H](C)C5)ccc4n3)cc12 [Compound 728, 7-[(3S)-3-methylpiperazin-1-yl]-2-(6-methyl-4-propylpyrazolo[1,5-a]pyrazin-2-yl)-4H-pyrido[1,2-a]pyrimidin-4-one] | **** (an EC1.5x≤0.3 μM is indicated by four stars (****)) | ***** (a fold increase >1.65 is indicated by five stars (*****)) | 0.1 to 0.3 µM
249 to 251 °C | CCCc1nc(C)cn2nc(-c3cc(=O)n4cc(N5C[C@@H](C)N[C@@H](C)C5)ccc4n3)cc12 [Compound 729, 7-[(3R,5S)-3,5-dimethylpiperazin-1-yl]-2-(6-methyl-4-propylpyrazolo[1,5-a]pyrazin-2-yl)-4H-pyrido[1,2-a]pyrimidin-4-one] | *** (an EC1.5× between >0.3 μM and ≤1 μM is indicated by three stars (***)) | ***** (a fold increase >1.65 is indicated by five stars (*****)) | 0.1 to 0.3 µM
243 to 251 °C | CC[C@H]1CN(c2cc(C)c3nc(-c4cc5c(C)nc(C)cn5n4)cc(=O)n3c2)CCN1 [Compound 732, 2-(4,6-dimethylpyrazolo[1,5-a]pyrazin-2-yl)-7-[(3S)-3-ethylpiperazin-1-yl]-9-methyl-4H-pyrido[1,2-a]pyrimidin-4-one] | *** (an EC1.5× between >0.3 μM and ≤1 μM is indicated by three stars (***)) | **** (a fold increase between >1.5 and ≤1.65 is indicated by four stars (****)) | 0.3 to 1 µM
216 to 218 °C | CCc1nc(C)cn2nc(-c3cc(=O)n4cc(N5CCC(C)(N)CC5)ccc4n3)cc12 [Compound 737, 7-(4-amino-4-methylpiperidin-1-yl)-2-(4-ethyl-6-methylpyrazolo[1,5-a]pyrazin-2-yl)-4H-pyrido[1,2-a]pyrimidin-4-one] | **** (an EC1.5x≤0.3 μM is indicated by four stars (****)) | ***** (a fold increase >1.65 is indicated by five stars (*****)) | < 0.1 µM

Second part, the molecule before the results:

Structure (SMILES) | melting point | EC1.5x for Smn protein expression [1] | maximum fold (Fold) increase of Smn protein [1] | EC (1.5-fold increase) [2]
Cc1cn2cc(-c3cc(=O)n4cc(N5CCN(C(C)C)[C@H](C)C5)ccc4n3)cc2c(C)n1 [Compound 730, 2-(1,3-dimethylpyrrolo[1,2-a]pyrazin-7-yl)-7-[(3R)-3-methyl-4-(propan-2-yl)piperazin-1-yl]-4H-pyrido[1,2-a]pyrimidin-4-one] | 249 to 251 °C | **** (an EC1.5x≤0.3 μM is indicated by four stars (****)) | ***** (a fold increase >1.65 is indicated by five stars (*****)) | < 0.1 µM
Cc1cn2cc(-c3cc(=O)n4cc(N5CCC(C)(N)CC5)ccc4n3)cc2c(C)n1 [Compound 731, 7-(4-amino-4-methylpiperidin-1-yl)-2-(1,3-dimethylpyrrolo[1,2-a]pyrazin-7-yl)-4H-pyrido[1,2-a]pyrimidin-4-one] | 244 to 246 °C | **** (an EC1.5x≤0.3 μM is indicated by four stars (****)) | ***** (a fold increase >1.65 is indicated by five stars (*****)) | < 0.1 µM
Cc1cn2cc(-c3cc(=O)n4cc(N5CCNCC5)ccc4n3)cc(C(F)(F)F)c2n1 [Compound 733, 2-[2-methyl-8-(trifluoromethyl)imidazo[1,2-a]pyridin-6-yl]-7-(piperazin-1-yl)-4H-pyrido[1,2-a]pyrimidin-4-one] | 325 to 328 °C | **** (an EC1.5x≤0.3 μM is indicated by four stars (****)) | ***** (a fold increase >1.65 is indicated by five stars (*****)) | < 0.1 µM
Cc1cn2cc(-c3cc(=O)n4cc(N5CCN[C@H](C)C5)ccc4n3)cc(C(F)(F)F)c2n1 [Compound 734, 7-[(3R)-3-methylpiperazin-1-yl]-2-[2-methyl-8-(trifluoromethyl)imidazo[1,2-a]pyridin-6-yl]-4H-pyrido[1,2-a]pyrimidin-4-one] | 303 to 306 °C | **** (an EC1.5x≤0.3 μM is indicated by four stars (****)) | ***** (a fold increase >1.65 is indicated by five stars (*****)) | < 0.1 µM
Cc1cn2cc(-c3cc(=O)n4cc(N5CCN[C@@H](C)C5)ccc4n3)cc(C(F)(F)F)c2n1 [Compound 735, 7-[(3S)-3-methylpiperazin-1-yl]-2-[2-methyl-8-(trifluoromethyl)imidazo[1,2-a]pyridin-6-yl]-4H-pyrido[1,2-a]pyrimidin-4-one] | > 320 °C | **** (an EC1.5x≤0.3 μM is indicated by four stars (****)) | **** (a fold increase between >1.5 and ≤1.65 is indicated by four stars (****)) | < 0.1 µM
Cc1cn2cc(-c3cc(=O)n4cc(N5C[C@@H](C)N[C@@H](C)C5)ccc4n3)cc(C(F)(F)F)c2n1 [Compound 736, 7-[(3R,5S)-3,5-dimethylpiperazin-1-yl]-2-[2-methyl-8-(trifluoromethyl)imidazo[1,2-a]pyridin-6-yl]-4H-pyrido[1,2-a]pyrimidin-4-one] | 293 to 296 °C | **** (an EC1.5x≤0.3 μM is indicated by four stars (****)) | ***** (a fold increase >1.65 is indicated by five stars (*****)) | < 0.1 µM
Cc1cc(-c2cc(=O)n3cc(N4CCNCC4)ccc3n2)cc2cn(C)nc12 [Compound 738, 2-(2,7-dimethyl-2H-indazol-5-yl)-7-(piperazin-1-yl)-4H-pyrido[1,2-a]pyrimidin-4-one] | 194 to 196 °C | **** (an EC1.5x≤0.3 μM is indicated by four stars (****)) | ***** (a fold increase >1.65 is indicated by five stars (*****)) | < 0.1 µM
Cc1cc(-c2cc(=O)n3cc(C4CCNCC4)ccc3n2)cc2cn(C)nc12 [Compound 739, 2-(2,7-dimethyl-2H-indazol-5-yl)-7-(piperidin-4-yl)-4H-pyrido[1,2-a]pyrimidin-4-one] | 228 to 230 °C | **** (an EC1.5x≤0.3 μM is indicated by four stars (****)) | ***** (a fold increase >1.65 is indicated by five stars (*****)) | < 0.1 µM
